Literature values as cited in patent publication US11571373B2, “Skin care preparations for babies” (priority 2015, dated 2023).

Legend:
[1] = species and route not given
[2] = in vivo

For C12-C13 Pareth-4, which “The actual or estimated LD50 value” [1] is on record?
The value was 2,000 mg/kg body weight.

With `[O-2].[Zn+2]` [Zinc oxide (CI 77947), Zinc oxide] as the compound, how does the solubility in water read?
The solubility in water was 0.00016 g/100 ml water.

Which “The actual or estimated LD50 value” [1] does the source give for Sodium Cocoamphoacetate here?
Its value is 14,859 mg/kg body weight.

And the “Oral LD50 value (rat)” value (rat)?
Its value is 14,859 mg/kg.

With Disodium Laureth Sulfosuccinate as the compound, how does the “The actual or estimated LD50 value” [1] read?
Its value is 5,000 mg/kg body weight.

For Tocopherol, which average absorption [2] is on record?
The average absorption was 40-60%.

What about the “share transported via the lymphatic system into the bloodstream” value [2] of the same compound?
Its value is “About 90%”.

What about the “extent of oral absorption” value ([2]; po) of the same compound?
Its value is 20-80%.
